Source: patent US20250064762A1, “A SUBSTITUTED AROMATIC DICARBONIC ACID AMIDE AS AN INHIBITOR OF THE FERROPTOSIS SUPPRESSOR PROTEIN-1 (FSP1)” (JULIUS-MAXIMILIANS-UNIVERSITÄT WÜRZBURG, priority 2021, published 2025)
Entries after “also recorded” stand apart in the source; their conditions may differ.

Assays:
IHH, AML12, RAW264.7 = experiment: FIN56 toxicity in non-transformed hepatocytes and a monocyte/macrophage cell line; assay type: cell-based; settings: CPBA 100 μM, iFSP1 10 μM; 16 h
Method: Cell culture media and supplements were from Thermo Fisher Scientific, unless specified otherwise. Mouse embryonic fibroblasts (MEFs) were generated from Pgp-wildtype (Pgp^fl/fl) or heterozygous Pgp-inactivated mouse embryos (Pgp^fl/D34N) as described (Segerer et al., 2016). […]
Cells were seeded onto 96-well plates (5,000 cells per well), and treated with serial dilutions of ferroptosis-inducing compounds (erastin, BSO, RSL3, FIN56) or cytotoxic drugs (staurosporine, nocodazole, tunicamycin, paclitaxel, etoposide, menadione, rotenone, FCCP, carboplatin) in the absence or presence of CPBA or iFSP1 (100 μM or 10 μM, respectively; unless stated otherwise) or the DMSO solvent control. Ferroptotic cell death was evaluated by incubating in the absence or presence of liproxstatin-1 (100 nM), ferrostatin-1 (200 nM), or deferoxamine (100 μM). Cell viability was assessed after 16 h using AquaBluer as an indicator of viable cells according to the manufacturer's recommendations (MultiTarget Pharmaceuticals, LLC). Fluorescence (excitation, 540 nm; emission, 590 nm) was analyzed on a Clariostar microplater reader. […]

[1] = tested on: HT1080 cells, mouse embryonic fibroblasts (MEFs), Du145 and PC3; experiment: Cell viability (AquaBluer): ferroptosis inducers (FINs) with or without CPBA; assay type: cell-based, human; settings: 16 h
Method: (§1) Cells were seeded onto 96-well plates (5,000 cells per well), and treated with serial dilutions of ferroptosis-inducing compounds (erastin, BSO, RSL3, FIN56) or cytotoxic drugs (staurosporine, nocodazole, tunicamycin, paclitaxel, etoposide, menadione, rotenone, FCCP, carboplatin) in the absence or presence of CPBA or iFSP1 (100 μM or 10 μM, respectively; unless stated otherwise) or the DMSO solvent control. Ferroptotic cell death was evaluated by incubating in the absence or presence of liproxstatin-1 (100 nM), ferrostatin-1 (200 nM), or deferoxamine (100 μM). Cell viability was assessed after 16 h using AquaBluer as an indicator of viable cells according to the manufacturer's recommendations (MultiTarget Pharmaceuticals, LLC). Fluorescence (excitation, 540 nm; emission, 590 nm) was analyzed on a Clariostar microplater reader.
HT1080 cells, mouse embryonic fibroblasts (MEFs, non-transformed, non-immortalized) and human prostate carcinoma cell lines Du145 and PC3 were incubated with serial dilutions of ferroptosis inducers (FINs) erastin, BSO, RSL3 or FIN56 in the absence or presence of CPBA and/or the ferroptosis inhibitor liproxstatin-1 (HT1080, Du145, PC3: 200 μM CPBA, MEF: 100 μM CPBA; lip-1:100 nM), and cell viability was analyzed after 16 h using Aquabluer. […]
AUC values (AUC FIN+CPBA/AUC FIN+ctrl) were calculated as described above.

HT1080 cells = experiment: FIN56-induced cell death with or without DGAT1/2 inhibitors; assay type: cell-based, human; settings: CPBA versus CPBA+iDGAT1/2
Method: as §1
The diglyceride acyltransferase isoforms 1 and 2 (DGAT1, DGAT2) are required to catalyze the formation of triglycerides from diacylglycerol and acyl-CoA.

Row | Compound | toxicity of FIN56 in non-transformed cell lines on addition of the compound (IHH, AML12, RAW264.7) | effect on FIN-induced ferroptosis / cell viability ([1]; FINs erastin, BSO, RSL3 or FIN56, 200 μM CPBA (MEF: 100 μM)) | concentration dependence of ferroptosis-sensitization ([1]; HT1080 and PC3 cells, serial dilutions of FINs±CPBA) | influence of lipid droplets on sensitization to FIN56-induced cell death (HT1080 cells)
1 | Cc1ccc(-c2c(C#N)c(N)n3c(nc4ccccc43)c2C#N)cc1 [iFSP1, reference compound] | not markedly increased by the addition of CPBA or iFSP1 |  |  | 
2 | O=C(Nc1ccccc1C(=O)O)c1ccc(Oc2ccc(C(=O)Nc3ccccc3C(=O)O)cc2)cc1 [CPBA, 2-[[4-[4-[(2-carboxyphenyl)carbamoyl]phenoxy]benzoyl]amino]-benzoic acid] |  | increases the negative effect of FINs on cell viability; also recorded: strongly increases FIN-induced ferroptosis in all cell lines | ferroptosis-sensitization by CPBA is concentration-dependent | the absence or presence of lipid droplets did not influence the CPBA-mediated sensitization of HT1080 cells to FIN56-induced cell death
